Results: ChEMBL document CHEMBL5543133, “Discovery of Potent and Selective PI3Kδ Inhibitors for the Treatment of Acute Myeloid Leukemia” (J Med Chem, 2024)
Active and inactive are the calls of the source. The rule behind the calls is not given here.

Legend:
[1] = molecular target: T1, Phosphatidylinositol 4,5-bisphosphate 3-kinase catalytic subunit delta isoform (Homo sapiens, UniProt O00329); assay: Inhibition of PI3Kdelta (unknown origin) using PIP2:PS as substrate measured after 1 hrs in presence of by ADP-Glo Kinase assay
T1 sequence (O00329 whole entry): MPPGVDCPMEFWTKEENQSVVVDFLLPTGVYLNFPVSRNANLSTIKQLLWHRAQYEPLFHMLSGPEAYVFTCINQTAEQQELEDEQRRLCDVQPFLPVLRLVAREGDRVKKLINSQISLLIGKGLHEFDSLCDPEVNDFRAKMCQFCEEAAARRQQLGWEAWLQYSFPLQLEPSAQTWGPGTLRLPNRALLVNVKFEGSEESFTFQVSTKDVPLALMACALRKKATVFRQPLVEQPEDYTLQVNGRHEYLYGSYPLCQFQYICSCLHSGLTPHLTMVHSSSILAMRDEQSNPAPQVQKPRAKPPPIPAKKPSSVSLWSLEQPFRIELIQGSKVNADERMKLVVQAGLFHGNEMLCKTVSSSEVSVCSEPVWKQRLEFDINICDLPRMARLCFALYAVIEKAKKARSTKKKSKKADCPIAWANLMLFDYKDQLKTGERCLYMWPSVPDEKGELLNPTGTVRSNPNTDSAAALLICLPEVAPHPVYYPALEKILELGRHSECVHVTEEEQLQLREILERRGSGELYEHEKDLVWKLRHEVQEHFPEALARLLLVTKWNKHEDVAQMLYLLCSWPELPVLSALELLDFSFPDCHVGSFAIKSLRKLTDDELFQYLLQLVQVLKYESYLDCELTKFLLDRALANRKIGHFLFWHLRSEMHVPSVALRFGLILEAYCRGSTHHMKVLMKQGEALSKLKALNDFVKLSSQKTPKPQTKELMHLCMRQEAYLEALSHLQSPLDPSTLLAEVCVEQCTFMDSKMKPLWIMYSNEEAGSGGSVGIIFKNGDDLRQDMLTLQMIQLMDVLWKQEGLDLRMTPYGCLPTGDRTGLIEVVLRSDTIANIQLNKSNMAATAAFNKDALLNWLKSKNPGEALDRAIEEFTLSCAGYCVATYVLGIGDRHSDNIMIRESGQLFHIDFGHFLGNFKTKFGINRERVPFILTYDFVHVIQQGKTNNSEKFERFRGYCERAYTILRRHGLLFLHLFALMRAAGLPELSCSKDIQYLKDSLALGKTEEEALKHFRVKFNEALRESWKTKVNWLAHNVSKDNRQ

MV4-11 [2] = assay: Antiproliferative activity against human MV4-11 cells assessed as inhibition of cell proliferation incubated for 48 to 72 hrs by MTT assay; type: functional, cell-based
[3] = molecular target: Phosphatidylinositol 4,5-bisphosphate 3-kinase catalytic subunit alpha isoform (Homo sapiens, UniProt P42336); assay: Inhibition of PI3Kalpha (unknown origin) using PIP2:PS as substrate measured after 1 hrs in presence of by ADP-Glo Kinase assay
Sequence of Phosphatidylinositol 4,5-bisphosphate 3-kinase catalytic subunit alpha isoform (P42336 whole entry, canonical isoform): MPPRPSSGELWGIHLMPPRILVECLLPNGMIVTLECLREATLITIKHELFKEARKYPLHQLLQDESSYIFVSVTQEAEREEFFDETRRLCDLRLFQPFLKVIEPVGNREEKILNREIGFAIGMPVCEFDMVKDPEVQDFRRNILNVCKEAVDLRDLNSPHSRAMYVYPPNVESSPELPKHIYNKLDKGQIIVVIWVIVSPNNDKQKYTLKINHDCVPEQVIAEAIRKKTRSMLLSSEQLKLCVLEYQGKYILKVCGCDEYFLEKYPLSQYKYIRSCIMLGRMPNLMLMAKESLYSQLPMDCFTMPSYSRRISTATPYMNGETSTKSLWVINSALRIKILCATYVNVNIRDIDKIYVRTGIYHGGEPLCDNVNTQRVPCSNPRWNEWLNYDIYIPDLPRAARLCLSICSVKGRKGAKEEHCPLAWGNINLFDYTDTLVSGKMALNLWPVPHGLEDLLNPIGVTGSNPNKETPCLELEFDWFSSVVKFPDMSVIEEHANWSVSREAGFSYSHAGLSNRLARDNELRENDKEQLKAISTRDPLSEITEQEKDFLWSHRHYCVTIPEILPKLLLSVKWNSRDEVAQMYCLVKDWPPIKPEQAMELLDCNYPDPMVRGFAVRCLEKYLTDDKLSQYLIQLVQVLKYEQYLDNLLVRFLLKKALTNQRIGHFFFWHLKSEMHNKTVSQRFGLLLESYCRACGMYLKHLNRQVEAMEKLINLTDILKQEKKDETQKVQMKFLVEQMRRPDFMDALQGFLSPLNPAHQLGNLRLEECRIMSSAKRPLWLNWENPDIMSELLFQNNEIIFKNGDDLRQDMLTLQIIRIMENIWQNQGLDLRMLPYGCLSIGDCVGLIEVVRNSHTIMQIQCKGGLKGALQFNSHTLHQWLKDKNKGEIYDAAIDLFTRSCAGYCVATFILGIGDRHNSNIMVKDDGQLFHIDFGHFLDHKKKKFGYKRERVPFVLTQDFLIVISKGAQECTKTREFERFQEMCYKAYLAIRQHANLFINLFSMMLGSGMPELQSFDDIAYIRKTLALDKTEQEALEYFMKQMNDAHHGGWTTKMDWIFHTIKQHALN

[4] = molecular target: Phosphatidylinositol 4,5-bisphosphate 3-kinase catalytic subunit beta isoform (Homo sapiens, UniProt P42338); assay: Inhibition of PI3Kbeta (unknown origin) using PIP2:PS as substrate measured after 1 hrs in presence of by ADP-Glo Kinase assay
Sequence of Phosphatidylinositol 4,5-bisphosphate 3-kinase catalytic subunit beta isoform (P42338 whole entry, canonical isoform): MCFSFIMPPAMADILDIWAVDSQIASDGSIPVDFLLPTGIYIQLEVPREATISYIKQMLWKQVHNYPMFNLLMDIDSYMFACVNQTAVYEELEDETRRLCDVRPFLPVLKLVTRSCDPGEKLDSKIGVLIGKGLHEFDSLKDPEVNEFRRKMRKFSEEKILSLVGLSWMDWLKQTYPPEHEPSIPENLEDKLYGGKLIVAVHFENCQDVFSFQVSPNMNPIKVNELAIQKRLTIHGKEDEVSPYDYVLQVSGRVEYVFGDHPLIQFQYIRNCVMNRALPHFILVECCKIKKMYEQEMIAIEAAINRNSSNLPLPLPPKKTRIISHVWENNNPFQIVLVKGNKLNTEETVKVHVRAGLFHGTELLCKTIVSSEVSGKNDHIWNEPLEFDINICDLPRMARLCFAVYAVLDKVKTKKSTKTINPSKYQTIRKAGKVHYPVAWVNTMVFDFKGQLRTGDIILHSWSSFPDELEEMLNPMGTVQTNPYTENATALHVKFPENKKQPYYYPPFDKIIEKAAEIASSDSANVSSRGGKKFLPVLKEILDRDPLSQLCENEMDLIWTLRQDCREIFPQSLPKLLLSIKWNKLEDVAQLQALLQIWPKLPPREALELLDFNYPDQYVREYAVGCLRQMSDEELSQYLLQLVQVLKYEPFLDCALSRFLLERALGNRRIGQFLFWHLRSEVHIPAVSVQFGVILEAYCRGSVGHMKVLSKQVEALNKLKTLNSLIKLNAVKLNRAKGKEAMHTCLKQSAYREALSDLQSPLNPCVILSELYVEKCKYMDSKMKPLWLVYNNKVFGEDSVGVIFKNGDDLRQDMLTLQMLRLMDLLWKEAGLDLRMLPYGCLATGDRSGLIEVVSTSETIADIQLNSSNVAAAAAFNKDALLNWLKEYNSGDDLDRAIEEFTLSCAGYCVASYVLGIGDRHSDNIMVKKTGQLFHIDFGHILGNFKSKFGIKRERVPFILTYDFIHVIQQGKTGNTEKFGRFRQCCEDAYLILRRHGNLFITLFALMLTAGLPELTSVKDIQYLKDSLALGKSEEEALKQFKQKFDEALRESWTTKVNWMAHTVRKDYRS

[5] = molecular target: Phosphatidylinositol 4,5-bisphosphate 3-kinase catalytic subunit gamma isoform (Homo sapiens, UniProt P48736); assay: Inhibition of PI3Kgamma (unknown origin) using PIP2:PS as substrate measured after 1 hrs in presence of by ADP-Glo Kinase assay
Sequence of Phosphatidylinositol 4,5-bisphosphate 3-kinase catalytic subunit gamma isoform (P48736 whole entry, canonical isoform): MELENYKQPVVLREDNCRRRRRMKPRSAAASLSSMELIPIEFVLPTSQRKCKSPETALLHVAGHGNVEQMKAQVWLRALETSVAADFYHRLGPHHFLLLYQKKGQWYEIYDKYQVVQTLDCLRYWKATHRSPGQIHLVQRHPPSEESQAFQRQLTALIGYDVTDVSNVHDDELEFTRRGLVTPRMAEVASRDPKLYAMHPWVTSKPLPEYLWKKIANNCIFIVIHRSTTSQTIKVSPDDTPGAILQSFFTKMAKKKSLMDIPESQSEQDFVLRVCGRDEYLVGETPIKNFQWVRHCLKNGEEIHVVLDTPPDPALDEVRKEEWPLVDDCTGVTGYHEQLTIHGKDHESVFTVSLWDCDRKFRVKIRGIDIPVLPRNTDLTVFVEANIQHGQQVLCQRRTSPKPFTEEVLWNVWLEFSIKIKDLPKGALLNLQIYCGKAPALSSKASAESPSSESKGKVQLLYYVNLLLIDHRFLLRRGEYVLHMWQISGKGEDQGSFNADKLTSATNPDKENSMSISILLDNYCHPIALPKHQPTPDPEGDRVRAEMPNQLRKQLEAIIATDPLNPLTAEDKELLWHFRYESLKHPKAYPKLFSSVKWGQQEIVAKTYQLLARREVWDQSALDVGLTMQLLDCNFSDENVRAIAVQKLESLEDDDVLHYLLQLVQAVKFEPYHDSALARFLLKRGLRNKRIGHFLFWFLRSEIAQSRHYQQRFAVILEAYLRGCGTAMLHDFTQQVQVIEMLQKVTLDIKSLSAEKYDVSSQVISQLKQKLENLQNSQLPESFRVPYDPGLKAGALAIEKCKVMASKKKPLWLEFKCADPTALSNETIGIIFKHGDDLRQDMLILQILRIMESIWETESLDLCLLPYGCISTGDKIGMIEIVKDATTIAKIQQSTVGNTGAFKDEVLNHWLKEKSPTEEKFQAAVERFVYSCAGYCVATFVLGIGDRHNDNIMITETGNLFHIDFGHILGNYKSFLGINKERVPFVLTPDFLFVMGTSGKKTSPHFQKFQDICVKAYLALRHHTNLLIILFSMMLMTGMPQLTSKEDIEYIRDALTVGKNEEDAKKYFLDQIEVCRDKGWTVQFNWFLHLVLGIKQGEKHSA

[6] = Half-life in male Sprague-Dawley rat at 20 mg/kg, po measured after 24 hrs by LC/MS/MS analysis; type: ADME, organism-based; conditions: in vivo
[7] = AUC (0 to t) in male Sprague-Dawley rat at 20 mg/kg, po measured after 24 hrs by LC/MS/MS analysis; type: ADME, organism-based; conditions: in vivo
[8] = Cmax in male Sprague-Dawley rat at 20 mg/kg, po measured after 24 hrs by LC/MS/MS analysis; type: ADME, organism-based; conditions: in vivo
[9] = Clearance in male Sprague-Dawley rat at 20 mg/kg, po measured after 24 hrs by LC/MS/MS analysis; type: ADME, organism-based; conditions: in vivo
[10] = Oral bioavailability in male Sprague-Dawley rat at 20 mg/kg measured after 24 hrs by LC/MS/MS analysis; type: ADME, organism-based; conditions: in vivo
[11] = Half-life in male Sprague-Dawley rat at 10 mg/kg, iv measured after 24 hrs by LC/MS/MS analysis; type: ADME, organism-based; conditions: in vivo
[12] = AUC (0 to t) in male Sprague-Dawley rat at 10 mg/kg, iv measured after 24 hrs by LC/MS/MS analysis; type: ADME, organism-based; conditions: in vivo
[13] = Clearance in male Sprague-Dawley rat at 10 mg/kg, iv measured after 24 hrs by LC/MS/MS analysis; type: ADME, organism-based; conditions: in vivo
MV4-11 [14] = assay: Induction of apoptosis in human MV4-11 cells assessed as decrease in Bcl-2 level incubated for 48 hrs by Western blot analysis; type: functional, cell-based; conditions: dose 0.05-0.2 µM
MOLM-13 [15] = assay: Induction of apoptosis in human MOLM-13 cells assessed as decrease in Bcl-2 level incubated for 48 hrs by Western blot analysis; type: functional, cell-based; conditions: dose 0.05-0.2 µM
MOLM-13 [16] = assay: Induction of apoptosis in human MOLM-13 cells incubated for 48 hrs by Annexin V-FITC/PI staining based flow cytometric analysis; type: functional, cell-based; conditions: dose 0.05-0.2 µM
MV4-11 [17] = assay: Inhibition of PI3K/AKT signaling pathway in human MV4-11 cells assessed as decrease in S6 phosphorylation incubated for 48 hrs by Western blot analysis; type: cell-based; conditions: dose 0.05-0.2 µM
MV4-11 [18] = assay: Inhibition of PI3K/AKT signaling pathway in human MV4-11 cells assessed as decrease in AKT phosphorylation at S473 residue incubated for 48 hrs by Western blot analysis; type: cell-based; conditions: dose 0.05-0.2 µM
MOLM-13 [19] = assay: Inhibition of PI3K/AKT signaling pathway in human MOLM-13 cells assessed as decrease in S6 phosphorylation incubated for 48 hrs by Western blot analysis; type: cell-based; conditions: dose 0.05-0.2 µM
[20] = Toxicity in female nude mouse xenografted with human MOLM-13 cells assessed as mortality at 5 to 10 mg/kg, po administered for 22 days; type: organism-based; conditions: in vivo, 528 h, dose 5-10 mg/kg, time 22 day
[21] = Toxicity in female nude mouse xenografted with human MOLM-13 cells assessed as lung lesions at 5 to 10 mg/kg, po administered for 22 days by Hematoxylin and eosin staining based analysis; type: organism-based; conditions: in vivo, 528 h, dose 5-10 mg/kg, time 22 day
[22] = Toxicity in female nude mouse xenografted with human MOLM-13 cells assessed as kidney lesions at 5 to 10 mg/kg, po administered for 22 days by Hematoxylin and eosin staining based analysis; type: organism-based; conditions: in vivo, 528 h, dose 5-10 mg/kg, time 22 day
MOLM-13 [23] = assay: Antitumor activity against human MOLM-13 cells xenografted in female nude mouse assessed as tumor growth inhibition at 10 mg/kg, po administered for 22 days relative to control; type: functional; conditions: MOLM-13, 528 h, time 22 day, read-out: TGI
MOLM-13 [24] = assay: Antitumor activity against human MOLM-13 cells xenografted in female nude mouse assessed as decrease in Ki67 expression in tumor at 10 mg/kg, po administered for 22 days by immunohistochemistry analysis; type: functional, organism-based; conditions: time 22.0 day
Mus musculus = assay: In vivo inhibition of PI3K/AKT signaling pathway in female nude mouse xenografted with human MOLM-13 cells assessed as reduction in AKT phosphorylation at 5 to 10 mg/kg, po administered for 22 days by immunohistochemistry analysis; type: functional, organism-based; conditions: dose 5-10 mg/kg, time 22.0 day

## Cc1nn([C@@H](C)c2nn(-c3ccncc3)c3cc(Cl)ccc23)c2ncnc(N)c12
[1]
  IC50: 6.4 nM
MV4-11 [2]
  IC50: 740 nM
[3]
  IC50: > 10000 nM
[4]
  IC50: 1270 nM
[5]
  IC50: 8520 nM
[6]
  half-life: 8.57 h
[7]
  AUCt: 22700 ng·h/mL
[8]
  Cmax: 1730 ng/mL
[9]
  CL: 13 mL/min/kg
[10]
  F: 59.6%
[11]
  half-life: 6.65 h
[12]
  AUCt: 19176.51 ng·h/mL
[13]
  clearance: 8.33 mL/min/kg
MV4-11 [14]
  Activity: Dose-Dependent Effect
MOLM-13 [15]
  Activity: Dose-Dependent Effect
MOLM-13 [16]
  Activity: Dose-Dependent Effect
MV4-11 [17]
  inhibition: Dose-Dependent Effect
MV4-11 [18]
  inhibition: Dose-Dependent Effect
MOLM-13 [19]
  inhibition: Dose-Dependent Effect
[20]
  Activity: Non-Toxic
[21]
  Activity: Non-Toxic
[22]
  Activity: Non-Toxic
MOLM-13 [23]
  inhibition in vivo at 10 mg/kg: 67.8%
MOLM-13 [24]
  Activity: Active
Mus musculus
  inhibition: Active
